Values after ≈ are worked out from the molar mass of the structure shown.
Each molecule was assayed against T1, Human Polymorphonuclear Leukocyte Elastase (Homo sapiens, UniProt P08246) (assay: biochemical). Conditions: not given.
T1 sequence (P08246 30-247 limits assumed): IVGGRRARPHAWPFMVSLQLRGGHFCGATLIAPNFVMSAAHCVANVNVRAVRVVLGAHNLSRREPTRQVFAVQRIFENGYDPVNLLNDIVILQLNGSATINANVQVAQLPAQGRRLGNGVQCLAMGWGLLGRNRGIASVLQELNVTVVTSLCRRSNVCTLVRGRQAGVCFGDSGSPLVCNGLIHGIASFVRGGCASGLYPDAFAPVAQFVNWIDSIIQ
Method: Protocol--Enzyme Assays for the Inhibition of Human Polymorphonuclear Leukocyte Elastase Via Hydrolysis of N-t-Boc-alanyl-alanyl-prolylalanine-p-nitroanilide Reagents:
0.05M TES (N-tris[hydroxymethyl]methyl-2-amino-ethanesulfonic acid) Buffer, pH 7.5.
0.2 mMN-t-Boc-alanyl -alanyl -prolyl-alanine-p-nitroanilide (Boc-AAPAN).
To prepare substrate, the solid (m.w. 550) was first dissolved in 10.0 ml DMSO. Buffer at pH 7.5 was then added to a final volume of 100 ml.
Crude extract of human polymorphonuclear leukocytes (PMN) containing elastase activity.
Inhibitors (cephalosporin sulfone esters) to be tested dissolved in DMSO just before use.
To 1.0 ml of 0.2 mM Boc-AAPAN in a cuvette, 0.01-0.1 ml of DMSO with or without inhibitor was added. After mixing, a measurement was taken at 410 mμ to detect any spontaneous hydrolysis due to presence of test compound. 0.05 Milliliters of PMN extract was then added and the ΔOD/min at 410 mμ was measured and recorded. Beckman model 35 spectrophotometer was used.
The elastase activity in the crude PMN extract may vary from one preparation to another. A control of each new batch is run, and the volume added in the assay procedure is adjusted according to activity.

| Structure (SMILES) | IC50 |
| --- | --- |
| CC(=O)OCC1=C(C(=O)OC(C)(C)C)N2C(=O)C(Oc3ccccc3)C2S(=O)(=O)C1 (centres unmarked) [R1=OC6H5, M=CH2OCOCH3, B=OtBu, Q=H] | 1830 nM |
| COC1C(=O)N2C(C(=O)OC(C)(C)C)=C(CSc3nnc(C)s3)CS(=O)(=O)C12 (centres unmarked) [R1=OCH3, M=drawing 42, B=OtBu, Q=H] | 2230 nM |
| COC1C(=O)N2C(C(=O)OC(C)(C)C)=C(CSc3nccn3C)CS(=O)(=O)C12 (centres unmarked) [R1=OCH3, M=drawing 41, B=OtBu, Q=H] | 2330 nM |
| CC(=O)OCC1=C(C(=O)OC(C)(C)C)N2C(=O)[C@H](Cl)[C@H]2S(=O)(=O)C1 [R1=Cl, M=CH2OCOCH3, B=OtBu, Q=H, t-Butyl 3-acetyloxymethyl-7α-chloro-8-oxo-5-thia-1-azabicyclo[4.2.0]oct-2-ene-2-carboxylate-5.5-dioxide] | 52.7 nM |
| CO[C@H]1C(=O)N2C(C(=O)OCc3ccccc3)=C(COC(C)=O)CS(=O)(=O)[C@H]12 [R1=OCH3, M=CH2OCOCH3, B=OCH2.phi., Q=H, Benzyl 3-acetyloxymethyl-7α-methoxy-8-oxo-5-thia-1-azabicyclo[4.2.0]oct-2-ene-2-carboxylate-5,5-dioxide] | 73.3 nM |
| CO[C@H]1C(=O)N2C(C(=O)OC(C)(C)C)=C(CS(=O)(=O)c3ccccc3)CS(=O)(=O)C12 (single isomer, unassigned) [R1=OCH3, M=CH2SO2.phi., B=OtBu, Q=H, t-Butyl 3-phenylsulfonylmethyl-7α-methoxy-8-oxo-5-thia-1-azabicyclo[4.2.0]oct-2-ene-2-carboxylate-5,5-dioxide] | 437 nM |
| COC(=O)C1=C(COC(C)=O)CS(=O)(=O)C2C(OC)C(=O)N12 (centres unmarked) [R1=OCH3, M=CH2OCOCH3, B=OCH3, Q=H] | 240 nM |

Same assay, conditions: Table II; 50% inhibition of the enzyme activity 2 minutes after zero time; crude PMN extract, pH 7.5, 0.2 mM Boc-AAPAN

| Structure (SMILES) | ED50 |
| --- | --- |
| CO[C@H]1C(=O)N2C(C(=O)OC(C)(C)C)=C(CSc3ccccc3)CS(=O)(=O)C12 (stereo partly drawn) [R1=OCH3, M=CH2S.phi., B=OtBu, Q=H, t-Butyl 3-phenylthiomethyl-7α-methoxy-8-oxo-5-thia-1-azabicyclo[4.2.0]oct-2-ene-2-carboxylate-5,5-dioxide] | 0.4 µg/mL (≈ 0.94 µM) |

Same assay, conditions: Table II; 50% inhibition of the enzyme activity 2 minutes after zero time; crude PMN extract, pH 7.5, 0.2 mM Boc-AAPAN; read-out: ED50 (the source's name) (converted)

| IC50 | Structure (SMILES) |
| --- | --- |
| 2400 nM | COC1C(=O)N2C(C(=O)OC(C)(C)C)=C(CO)CS(=O)(=O)C12 (centres unmarked) [R1=OCH3, M=CH2OH, B=OtBu, Q=H] |
| 47.9 nM | COC1C(=O)N2C(C(=O)OCC(=O)C(C)(C)C)=C(COC(C)=O)CS(=O)(=O)C12 (centres unmarked) [R1=OCH3, M=CH2OCOCH3, B=OCH2COtBu, Q=H] |
| 288 nM | COC(=O)C1=C(COC(C)=O)CS(=O)(=O)C2C(OC=O)C(=O)N12 (centres unmarked) [R1=drawing 37, M=CH2OCOCH3, B=OCH3, Q=H] |
| 60.3 nM | CO[C@H]1C(=O)N2C(C(=O)OC(C)(C)C)=C(COC(C)=O)C(CSc3ccccc3)S(=O)(=O)[C@H]12 (stereo partly drawn) [t-Butyl 3-acetyloxymethyl-7α-methoxy-4-phenylthiomethyl-8-oxo-5-thia-1-azabicyclo[4.2.0]oct-2-ene-2-carboxylate-5,5-dioxide] |
| 77.4 nM | C=C1C(COC(C)=O)=C(C(=O)OC(C)(C)C)N2C(=O)[C@H](OC)[C@H]2S1(=O)=O [R1=OCH3, M=CH2OCOCH3, B=OtBu, Q=CH2, t-Butyl 3-acetyloxymethyl-7α-methoxy-4-methylene-8-oxo-5-thia-1-azabicyclo [4.2.0]oct-2-ene-2-carboxylate-5,5-dioxide] |
| 676 nM | COC(=O)C1=C(Cl)CS(=O)(=O)C2[C@@H](OC)C(=O)N12 (stereo partly drawn) [R1=OCH3, M=Cl, B=OCH3, Q=H, Methyl-3-chloro-7α-methoxy-8-oxo-5-thia-1-azabicyclo[4.2.0]oct-2-ene-2-carboxylate-5,5-dioxide] |
| 1440 nM | COC1C(=O)N2C(C(=O)OC(C)(C)C)=C(CSc3cn[nH]n3)CS(=O)(=O)C12 (centres unmarked) [R1=OCH3, M=drawing 44, B=OtBu, Q=H] |
| 740 nM | CCOC(=O)OCC1=C(C(=O)OC(C)(C)C)N2C(=O)C(OC)C2S(=O)(=O)C1 (centres unmarked) [R1=OCH3, M=CH2OCOOC2H5, B=OtBu, Q=H] |
| 1730 nM | COC1C(=O)N2C(C(=O)N(C)C)=C(COC(C)=O)CS(=O)(=O)C12 (centres unmarked) [R1=OCH3, M=CH2OCOCH3, B=N(CH3)2, Q=H] |
| 198 nM | COC1C(=O)N2C(C(=O)OC(C)(C)C)=C(COC(=O)CN(C)C(=O)OC(C)(C)C)CS(=O)(=O)C12 (centres unmarked) [R1=OCH3, M=drawing 38, B=OtBu, Q=H] |
| 1330 nM | CO[C@H]1C(=O)N2C(C(=O)OC(C)(C)C)=C(COC(C)=O)CS(=O)(=O)[C@H]12 [R1=OCH3, M=CH2OCOCH3, B=OtBu, Q=H, t-Butyl-3-acetyloxymethyl-7α-methoxy-8-oxo-5-thia-1-azabicyclo[4.2.0]oct-2-ene-2-carboxylate-5,5-dioxide] |
| 6220 nM | COC1C(=O)N2C(C(=O)OC(C)(C)C)=C(CSc3nc4ccccc4s3)CS(=O)(=O)C12 (centres unmarked) [R1=OCH3, M=drawing 43, B=OtBu, Q=H] |
| 28.8 nM | CO[C@H]1C(=O)N2C(C(=O)OC(C)(C)C)=C(C(=O)O)CS(=O)(=O)C12 (stereo partly drawn) [R1=OCH3, M=COOH, B=OtBu, Q=H, t-Butyl 3-hydroxycarbonyl-7α-methoxy-8-oxo-5-thia-1-azabicyclo[4.2.0]oct-2-ene-2-carboxylate-5,5 dioxide] |
| 92.1 nM | CO[C@H]1C(=O)N2C(C(=O)OC(C)(C)C)=C(COC(=O)NCC(=O)O)CS(=O)(=O)C12 (stereo partly drawn) [R1=OCH3, M=CH2OCONHCH2COOH, B=OtBu, Q=H, t-Butyl 3-hydroxycarbonylmethylaminocarbonyloxymethyl-7α-methoxy-8-oxo-5-thia-1-azabicyclo[4.2.0]oct-2-ene-2-carboxylate-5,5-dioxide] |
| 12000 nM | COC1C(=O)N2C(C(=O)N3CCC[C@H]3C(=O)O)=C(COC(C)=O)CS(=O)(=O)C12 (some centres unmarked) [R1=OCH3, M=CH2OCOCH3, B=drawing 33, Q=H] |
| 1600 nM | CCOC(=S)SCC1=C(C(=O)OC(C)(C)C)N2C(=O)C(OC)C2S(=O)(=O)C1 (centres unmarked) [R1=OCH3, M=drawing 40, B=OtBu, Q=H] |
| 2160 nM | COC1C(=O)N2C(C(=O)OC(C)(C)C)=C(CSc3nc[nH]n3)CS(=O)(=O)C12 (centres unmarked) [R1=OCH3, M=drawing 39, B=OtBu, Q=H] |
| 1440 nM | CCOC(=O)COC(=O)C1=C(C)CS(=O)(=O)C2C(OC)C(=O)N12 (centres unmarked) [R1=OCH3, M=CH3, B=OCH2COOC2H5, Q=H] |
| 32200 nM | COC1C(=O)N2C(C(=O)OC(C)(C)C)=C(COC(C)=O)C(Cc3ccccc3)S(=O)(=O)C12 (centres unmarked) [R1=OCH3, M=CH2OCOCH3, B=OtBu, Q=CH2.phi.] |
| 253 nM | COC1C(=O)N2C(C(=O)OC(C)(C)C)=C(CS(C)(=O)=O)CS(=O)(=O)C12 (centres unmarked) [R1=OCH3, M=CH2SO2CH3, B=OtBu, Q=H] |
| 1390 nM | COC1C(=O)N2C(C(=O)OC(C)(C)C)=C(CSc3nnnn3C)CS(=O)(=O)C12 (centres unmarked) [R1=OCH3, M=drawing 45, B=OtBu, Q=H] |
| 385 nM | CC(=O)OCC1=C(C(=O)OC(C)(C)C)N2C(=O)C(OC=O)C2S(=O)(=O)C1 (centres unmarked) [R1=drawing 36, M=CH2OCOCH3, B=OtBu, Q=H] |
| 914 nM | CC(=O)OCC1=C(C(=O)OCc2ccccc2)N2C(=O)C(OC(C)=O)C2S(=O)(=O)C1 (centres unmarked) [R1=OCOCH3, M=CH2OCOCH3, B=OCH2.phi., Q=H] |

The remaining lines, values behind:

| Structure (SMILES) | IC50 |
| --- | --- |
| CCC1C(=O)N2C(C(=O)OCc3ccccc3)=C(COC(C)=O)CS(=O)(=O)C12 (centres unmarked) [R1=C2H5, M=CH2OCOCH3, B=OCH2.phi., Q=H] | 982 nM |
| COC1C(=O)N2C(C(=O)OCC=C(C)C)=C(COC(C)=O)CS(=O)(=O)C12 (centres unmarked) | 2580 nM |
| CCC1C(=O)N2C(C(=O)OC(C)(C)C)=C(COC(=O)NC(C)C(=O)O)CS(=O)(=O)C12 (centres unmarked) [R1=C2H5, M=drawing 31, B=OtBu, Q=H] | 2240 nM |
| COC1C(=O)N2C(C(=O)OC(C)(C)C)=C(COC(C)=O)C(CS(=O)(=O)c3ccccc3)S(=O)(=O)C12 (centres unmarked) | 37.8 nM |
| CNCC(=O)OCC1=C(C(=O)OC(C)(C)C)N2C(=O)C(OC)C2S(=O)(=O)C1 (centres unmarked) [R1=OCH3, M=CH2OCOCH2NHCH3, B=OtBu, Q=H] | 742 nM |
| COC(=O)c1cccc(COC(=O)C2=C(C)CS(=O)(=O)C3C(OC)C(=O)N23)c1 (centres unmarked) | 733 nM |
| CCC1C(=O)N2C(C(=O)OC(C)(C)C)=C(COC(=O)CCC(=O)O)CS(=O)(=O)C12 (centres unmarked) [R1=C2H5, M=CH2OCOCH2CH2COOH, B=OtBu, Q=H] | 1850 nM |
| CO[C@H]1C(=O)N2C(C(=O)OC(C)(C)C)=C(COC(=O)CCC(=O)O)CS(=O)(=O)C12 (stereo partly drawn) [R1=OCH3, M=CH2OCOCH2CH2COOH, B=OtBu, Q=H, t-Butyl 3-(3-[hydroxycarbonyl]Propanoyloxymethyl)-7α-methoxy-8-oxo-5-thia-1-azabicyclo[4.2.0]oct-2-ene-2-carboxylate-5,5-dioxide] | 231 nM |

Same assay, conditions: Table IIa; 50% inhibition of the enzyme activity 2 minutes after zero time; crude PMN extract, pH 7.5, 0.2 mM Boc-AAPAN; read-out: ED50 (the source's name) (converted)

| IC50 | Structure (SMILES) |
| --- | --- |
| 131 nM | CC(=O)OCC1=C(C(=O)OC(C)(C)C)N2C(=O)C(F)(F)C2S(=O)(=O)C1 (centres unmarked) |
| 241 nM | CC(=O)OCC1=C(C(=O)OC(C)(C)C)N2C(=O)C(Cl)(Cl)C2S(=O)(=O)C1 (centres unmarked) |
